Literature values as cited in patent US20180187029A1, “COMPOSITION FOR FORMING HIGH RELEASE AND LOW FRICTION FUNCTIONAL COATINGS” (WHITFORD CORPORATION, priority 2015, published 2018).

Details: for Density / Vapor pressure / Viscosity: 20° C.; for Surface tension: 23° C.

Density [g/Cm3]	Vapor pressure [kPa]	Viscosity [mPa · s]	Surface tension [mN/m]	SMILES
0.99	0.016	2.3	34.2	COCCC(=O)N(C)C [3-methoxy-N,N-dimethylpropanamide]
1.03	0.04	1.8	38.6	CN1CCCC1=O [N-methyl-2-pyrrolidone]
